Where two headings read alike, the source gives them in different places.
How the values were obtained:
[1] = rat, in vivo, iv; cited from earlier work
[2] = T1-relaxivity with Minispec pc 20 (20 MHz, 0.47T) at 37° C. in water and human plasma; assay type: physicochemical; settings: for T1-relaxivity: 20 MHz; for R^1 [L/mmol * sec] at 0.47 T and 37° C. Plasma / R^1 [L/mmol * sec] at 0.47 T and 37° C. Water: T1-relaxivity, Minispec pc 20 (20 MHz, 0.47 T); for R^1 [L/mmol * sec] at 0.47 T and 37° C. Plasma: in human plasma; for R^1 [L/mmol * sec] at 0.47 T and 37° C. Water: in water
Description: The relaxivity of the following compounds was determined with a Minispec pc 20 (20 MHz, 0.47T) at 37° C. in water and human plasma and compared to that of Gd-DTPA-polylysine and Magnevist^(R) as comparison substances.

[3] = T1-relaxivity, from Invest. Radiol. 1992, 346, cited from earlier work
[4] = Blood elimination kinetics of contrast media in rats after one-time intravenous administration; assay type: in vivo, rats (Han Wistar, Schering SPF); settings: for distribution volume Vss, MEAN / elimination half-life Tβ, MEAN / total clearance CLtot, MEAN: one-time i.v., Dy-DTPA 100 μmol Dy/kg (n=3), Example 1c 50 μmol Gd/kg (n=2), TOPFIT 2.0
Description: The blood elimination kinetics of contrast media was examined in rats (Han Wistar, Schering SPF, ≈250 g of body weight). For this purpose, after one-time intravenous administration (via a caudal vein) of the substances (dose: 50-100 μmol of Me per kg of body weight), the substance concentration in the blood (based on the Gd or Dy content) was determined over a period of up to 300 minutes p.i. with the aid of ICP-AES. The pharmacokinetic parameters: distribution volume (Vss), total clearance (CLtot) and elimination half-life (tβ) were calculated with a special computer program (TOPFIT 2.0; Thomae, Schering, Gödecke), whereby a one- or two-compartment distribution model was used as a basis.
FIG. 1 represents elimination from the blood (in % of the injected dose) of Dy-DTPA (dose: 100 μmol of Dy per kg of body weight, n=3) and of the fluorine compounds of Example 1c according to the invention (dose: 50 μmol of Gd per kg of body weight, n=2) after one-time intravenous administration of substances in rats (Han Wistar, Schering SPF, ≈250 g of body weight).
The Gd and Dy contents in the blood were determined with the aid of ICP-AES.

[5] = Lymph node visualization (MRT) after interstitial administration of the contrast medium; assay type: in vivo; settings: guinea pigs, 120 minutes after s.c. 10 μmol of Gd/kg, T1-weighted spin echo (TR 400 ms, TE 15 ms)
Description: It was possible to confirm the special suitability of the compounds according to the invention in MR imaging studies in guinea pigs. Thus, 120 minutes after subcutaneous administration of 10 μmol/kg of body weight of a perfluorine-containing gadolinium complex (guinea pigs, hind paw, interdigital space) in T^1-weighted spin-echo images (TR 400 ms, TE 15 ms), a clear enhancement of the popliteal lymph nodes (270%) as well as the inguinal lymph nodes (104%) was observed (cf. Image 1).

[6] = Elimination of the contrast medium after i.p. administration (retention of metal in liver and remainder of the body); assay type: in vivo; settings: rats, i.p. 100 μmol of total gadolinium/kg, 14 days p.i.
Excerpt: After administration of a perfluorinated gadolinium complex according to the invention (100 μmol of total gadolinium/kg of body weight) in the intraperitoneal space of rats, the retention of metal in the liver as well as in the remainder of the body was examined 14 days after administration. In this test, fluorine-containing compound 2c) was used. After 14 days p.i., the gadolinium concentration was 0.22% of the administered dose in the liver and 1.1% of the administered dose in the remainder of the body.

Row | T1-relaxivity ([2]; human plasma) | T1-relaxivity ([2]; water) | R^1 [L/mmol * sec] at 0.47 T and 37° C. Plasma [2] | R^1 [L/mmol * sec] at 0.47 T and 37° C. Water [2] | Molecule | other results
1 | 4.2 L/mmol/s | 2.7 L/mmol/s | – | – | CCN(CC(=O)NCC(O)CN1CCN(CC(=O)[O-])CCN(CC(=O)[O-])CCN(CC(=O)[O-])CC1)S(=O)(=O)C(F)(F)C(F)(F)C(F)(F)C(F)(F)C(F)(F)C(F)(F)C(F)(F)C(F)(F)F.[Mn+2].[Na+] (stereo not drawn) [Example 1e, Manganese complex of 10-[2-hydroxy-4-aza-5-oxo-7-aza-7-(perfluorooctylsulfonyl)-nonyl]-1,4,7-tris(carboxymethyl)-1,4,7,10-tetraazacyclododecane (as sodium salt)] | –
2 | 49 L/mmol/s | 41 L/mmol/s | 49 L/mmol/s | 41 L/mmol/s | CCN(CC(=O)NCC(O)CN1CCN(CC(=O)[O-])CCN(CC(=O)[O-])CCN(CC(=O)[O-])CC1)S(=O)(=O)C(F)(F)C(F)(F)C(F)(F)C(F)(F)C(F)(F)C(F)(F)C(F)(F)C(F)(F)F.[Gd+3] (stereo not drawn) [Example 1c, Gadolinium Complex of 10-[2-hydroxy-4-aza-5-oxo-7aza-7-(perfluorooctylsulfonyl)-nonyl]-1,4,7-tris(carboxymethyl)-1,4,7,10-tetraazacyclododecane] | distribution volume in comparison to Dy-DTPA ([4]; i.v.): smaller distribution volume; elimination from the blood in comparison to Dy-DTPA ([4]; i.v.): considerably slower elimination from the blood; distribution volume Vss, MEAN [4]: 0.14 L/kg; elimination half-life Tβ, MEAN [4]: 95.01 min; total clearance CLtot, MEAN [4]: 1.07 mL/min/kg
3 | – | – | 4.8 L/mmol/s | 3.8 L/mmol/s | CNC[C@H](O)[C@@H](O)[C@H](O)[C@H](O)CO.CNC[C@H](O)[C@@H](O)[C@H](O)[C@H](O)CO.O=C([O-])CN(CCN(CC(=O)[O-])CC(=O)O)CCN(CC(=O)[O-])CC(=O)O.[Gd+3] [Magnevist, reference compound] | –

The next lines start with the molecule.

Row | Molecule | T1-relaxivity ([2]; human plasma) | T1-relaxivity ([2]; water) | R^1 [L/mmol * sec] at 0.47 T and 37° C. Plasma [2] | R^1 [L/mmol * sec] at 0.47 T and 37° C. Water [2] | other results
4 | albumin-Gd-DTPA | – | – | – | – | concentration in the liver tissue [1]: ~30 % of the dose
5 | polylysine-Gd-DTPA | – | – | – | – | R^1 [L/mmol * sec] at 0.47 T and 37° C. Plasma ([3]; in plasma): 16.8 L/mmol/s; R^1 [L/mmol * sec] at 0.47 T and 37° C. Water ([3]; in water): 13.1 L/mmol/s
6 | O=C([O-])CN1CCN(CC(=O)[O-])CCN(CC(O)CNC(=O)COCCC(F)(F)C(F)(F)C(F)(F)C(F)(F)C(F)(F)C(F)(F)C(F)(F)C(F)(F)F)CCN(CC(=O)[O-])CC1.[Gd+3] (stereo not drawn) [Example 2c, Gadolinium complex of 10-[2-hydroxy-4-aza-5-oxo-7-oxa-10,10,11,11,12,12,13,13,14,14,15,15,16,16,17,17,17-heptadecafluoroheptadecyl]-1,4,7-tris(carboxymethyl)-1,4,7,10-tetraazacyclododecane] | 33 L/mmol/s | 19 L/mmol/s | 33 L/mmol/s | 19 L/mmol/s | signal in the popliteal and inguinal lymph nodes of the injected side vs non-injected side or precontrast image [5]: strong signal rise; gadolinium concentration in the liver [6]: 0.22 % of the administered dose; gadolinium concentration in the remainder of the body [6]: 1.1 % of the administered dose
7 | O=C([O-])CN(CCN(CC(=O)[O-])CC(=O)[O-])CCN(CC(=O)[O-])CC(=O)[O-].[Dy+3].[Na+].[Na+] [Dy-DTPA, reference compound] | – | – | – | – | distribution volume Vss, MEAN [4]: 0.17 L/kg; elimination half-life Tβ, MEAN [4]: 14.98 min; total clearance CLtot, MEAN [4]: 9.27 mL/min/kg
8 | O=C([O-])CN1CCN(CC(=O)[O-])CCN(CC(O)COCCC(F)(F)C(F)(F)C(F)(F)C(F)(F)C(F)(F)C(F)(F)C(F)(F)C(F)(F)F)CCN(CC(=O)[O-])CC1.[Gd+3] (stereo not drawn) [Example 3c, Gadolinium complex of 10-[-2hydroxy-4-oxa-1H,1H,2H,3H,3H,5H,5H,6H,6H-perfluorotetradecyl]-1,4,7-tris(carboxymethyl)-1,4,7,10-tetraazacyclododecane] | 27.5 L/mmol/s | 15.2 L/mmol/s | 27.5 L/mmol/s | 15.2 L/mmol/s | –

Reference: patent publication US6916461B2, “Metal complexes that contain perfluoroalkyl, process for their production and their use in NMR diagnosis” (Schering AG, priority 1996, dated 2005)
